Earlier results, collected in US9039924B2 (priority 2010, dated 2015).

System: rat
Settings: in vivo; for LD50 values below 1000 or toxic: po

For “potassium thiosulfate pentahydrate [K2S2O3•5H2O]”, the “LD50 (oral-rat; mg/kg)” value is given as 802 mg/kg and the “LD50 values below 1000 or toxic” value is given as “below 1000”.
For potassium bromide [KBr], the “LD50 (oral-rat; mg/kg)” value is listed as 3070 mg/kg.
For potassium chloride [KCl], the “LD50 (oral-rat; mg/kg)” value is given as 2600 mg/kg.
In the case of `N#C[O-].[K+]` [KCNO, potassium cyanate], the “LD50 values below 1000 or toxic” value is given as “below 1000”.
For potassium iodide [KI], the “LD50 (oral-rat; mg/kg)” value is given as 1862 mg/kg.
For ammonium thiocyanide [NH4CNS], the “LD50 (oral-rat; mg/kg)” value is listed as 954 mg/kg and the “LD50 values below 1000 or toxic” value is listed as “below 1000”.
In the case of `O=NO` [NaNO2, sodium nitrite], the “LD50 values below 1000 or toxic” value is listed as “below 1000”.
For `O=N[O-].[K+]` [KNO2, potassium nitrite], the “LD50 values below 1000 or toxic” value is listed as “below 1000”.
For `NC(N)=O` [CO(NH2)2, urea], the “LD50 (oral-rat; mg/kg)” value is given as 8471 mg/kg.
In the case of “potassium fluoride dihydrate [KF•2(H2O)]”, the “LD50 (oral-rat; mg/kg)” value is listed as 245 mg/kg and the “LD50 values below 1000 or toxic” value is listed as “below 1000”.
In the case of `O.O.O.O.O.O=S([O-])([O-])=S.[Na+].[Na+]` [Na2S2O3•5H2O, sodium thiosulfate pentahydrate], the “LD50 (oral-rat; mg/kg)” value is listed as 2300 mg/kg.
In the case of `N#CO` [NaCNO, sodium cyanate], the “LD50 (oral-rat; mg/kg)” value is given as 5 mg/kg and the “LD50 values below 1000 or toxic” value is given as “below 1000”.
